Source: patent US8227406B2, “Antimicrobial peptides” (Dermagen AB, priority 2006, dated 2012)
Where no end group is shown, it is not given here.

How the values were obtained:
[1] = test system: Eschericia coli ATCC25922; experiment: Radial diffusion assay (RDA), E. coli; type: cell-based, Escherichia coli; details: for RDA values (mm) E. coli ATCC 25922: Table 1b, 10 mM Tris Hcl (pH 7.4)
Experimental: (§1) Peptides. Peptides were from Sigma-Genosys, generated by a peptide synthesis platform (PEPscreen®, Custom Peptide Libraries, SigmaGenosys). Yield was ˜1-6 mg, and peptide length 20 amino acids. MALDI-ToF Mass Spectrometry was perfomed on these peptides. Average Crude Purity of 20mers was ˜60%. Peptides were supplied lyophilized and in a 96-well tube rack. Prior to biological testing the PEPscreen peptides were diluted in dH2O (5 mM stock), and stored at −20 C. This stock solution was used for the subsequent experiments.
(§2) Eschericia coli ATCC25922, Staphylococcus aureus ATCC29213, and the fungal isolate Candida albicans ATCC90028 were obtained from the Department of Bacteriology, Lund University Hospital.
(§3) Radial diffusion assays (RDA) were performed essentially as described earlier (Lehrer, R. I., Rosenman, M., Harwig, S. S., Jackson, R. & Eisenhauer, P. (1991) Ultrasensitive assays for endogenous antimicrobial polypeptides, J Immunol Methods. 137, 167-73). Briefly, bacteria (E. coli, S. aureus) or fungi (C. albicans) were grown to midlogarithmic phase in 10 ml of full-strength (3% w/v) trypticase soy broth (TSB) (Becton-Dickinson, Cockeysville, Md.). The microorganisms were washed once with 10 mM Tris, pH 7.4. 4×10^6 bacterial cfu or 1×10^5 fungal cfu was added to 5 ml of the underlay agarose gel, consisting of 0.03% (w/v) TSB, 1% (w/v) low-electroendoosmosistype (Low-EEO) agarose (Sigma, St Louise Mo.) and a final concentration of 0.02% (v/v) Tween 20 (Sigma). The underlay was poured into a Ø 85 mm petri dish. After agarose solidified, 4 mm-diameter wells were punched and 6 μl of test sample was added to each well. Plates were incubated at 37° C. for 3 hours to allow diffusion of the peptides. The underlay gel was then covered with 5 ml of molten overlay (6% TSB and 1% Low-EEO agarose in dH2O). Antimicrobial activity of a peptide is visualized as a clear zone around each well after 18-24 hours of incubation at 37° C. for bacteria and 28° C. for Candida albicans. Other examples of peptides that were screened and found to show an increased effect against the above mentioned microorgansism are listed below. Some of the results are found in table 1c showing the effects against C. albicans, table 1d E. coli and table 1e S. aureus.

[2] = test system: Staphylococcus aureus ATCC29213; experiment: Radial diffusion assay (RDA), S. aureus; type: cell-based; details: for RDA values (mm) S. aureus ATCC 29213: Table 1b, 10 mM Tris Hcl (pH 7.4)
Experimental: as §1, §2, §3

[3] = test system: Candida albicans ATCC90028; experiment: Radial diffusion assay (RDA), C. albicans; type: cell-based; details: Table 1a; RDA clear zone
Experimental: as §1, §2, §3

Substance | RDA values (mm) E. coli ATCC 25922 [1] [mm] | RDA values (mm) S. aureus ATCC 29213 [2] [mm] | further results
KKKKWWW [Peptide T53] | 8.11 | 2.85 | –
KNKGKKWWW [Peptide T6] | 8.16 | 2.79 | –
KHWWW [Peptide T31] | 1.48 | 0.00 | –
KWWW [Peptide T11] | 0.00 | 0.00 | –
KKKKKKWWW [Peptide T51] | 8.12 | 4.16 | –
KKNGKHWWW [Peptide T27] | 7.56 | 1.68 | –
KNKGKKWWWWW [Peptide T17] | 8.98 | 3.88 | –
KKKKKKKKWWW [Peptide T49] | 7.90 | 5.48 | –
KNKGKKNGKHGSGSPWWW [Peptide T61] | 8.64 | 1.52 | –
WWWKNK [Peptide T40] | 0.00 | 0.00 | –
KNKGKKNWWW [Peptide T5] | 8.36 | 2.85 | –
DDDDDDDDDDWWW [Peptide T60] | 0.00 | 0.00 | –
KNKGKKNGKHWWWWW [Peptide T13] | 7.93 | 5.58 | –
KNKGWWWWW [Peptide T19] | 4.49 | 1.10 | –
KNKWWW [Peptide T9] | 2.73 | 0.00 | –
KNKGWWW [Peptide T8] | 2.94 | 0.00 | –
WWWSNSGSSNGSH [Peptide T45] | 0.00 | 0.00 | –
SSSSSSSSSSWWW [Peptide T58] | 0.00 | 0.00 | –
HKHGHLHLKHKNKGKKNGKH [Peptide 36] | – | – | Candida albicans ATCC 90028 Mean [3]: 0.000; E.coli ATCC 25922 Mean, Ingrowth* counted ([1]; Table 1a, RDA clear zone, ingrowth counted): 0.000; E.coli ATCC 25922 Mean, Ingrowth not counted ([1]; Table 1a, RDA clear zone, ingrowth not counted): 0.000; S. aureus ATCC 29213 Mean ([2]; Table 1a, RDA clear zone): 0.000
KNKGKKNWWWWW [Peptide T16] | 9.09 | 3.83 | –
NGKHWWW [Peptide T29] | 0.00 | 0.00 | –
HWWW [Peptide T32] | 0.00 | 0.00 | –
KNWWWWW [Peptide T21] | 1.70 | 0.00 | –
KNKGKKNGKWWW [Peptide T3] | 9.16 | 4.07 | –
KNWWW [Peptide T10] | 2.69 | 0.00 | –
KNKGKKNGKWWWWW [Peptide T14] | 7.90 | 5.07 | –
SNSGSSNGSH [Peptide T43] | 0.00 | 0.00 | –
KNKGKKNGWWWWW [Peptide T15] | 8.03 | 3.90 | –
SSSSSSSSSS [Peptide T57] | 0.00 | 0.00 | –
KKWWW [Peptide T55] | 2.95 | 1.01 | –
